# From patent US11691969B2, “Pyridazinones as PARP7 inhibtors” (Ribon Therapeutics, Inc., priority 2019, dated 2023)
# Molecular target: PARP7 (Homo sapiens (Human), UniProt Q7Z3E1)
# Experiment: TR-FRET assay: displacement of biotinylated Probe A from the TIPARP active site (Enzymatic Assay for Inhibition of PARP7)
# Type: binding
# Conditions: TIPARP 6 nM, Probe A 2 nM, 25° C.
# Experimental: Example A. Enzymatic Assay for Inhibition of PARP7
# Displacement of Probe A, a biotinylated probe binding to the TIPARP active site, was measured using a time-resolved fluorescence energy transfer (TR-FRET) assay. 20 nL of a dose response curve of each test compound was spotted in black 384-well polystyrene proxiplates (Perkin Elmer) using a Mosquito (TTP Labtech). Reactions were performed in a 8 μl volume by adding 6 μL of TIPARP and Probe A in assay buffer (20 mM HEPES pH=8, 100 mM NaCl, 0.1% bovine serum albumin, 2 mM DTT and 0.002% Tween20), incubating with test compound at 25° C. for 30 min, then adding 2 μL of ULight-anti 6×His and LANCE Eu-W1024 labeled streptavidin (Perkin Elmer). The final concentrations of TIPARP and Probe A were 6 nM and 2 nM, respectively. The final concentration of ULight-anti 6×His and LANCE Eu-W1024 labeled streptavidin were 4 nM and 0.25 nM, respectively. Reactions were incubated at 25° C. for an additional 30 min, then read on an Envision platereader equipped with a LANCE/DELFIA top mirror (Perkin Elmer) using excitation of 320 nm and emission of 615 nm and […] with a […]. The ratio of the 665/615 nm emission were calculated for each well to determine the amount of complex of TIPARP and Probe Ain each well. Control wells containing a negative control of 0.25% DMSO vehicle or a positive control of 100 μM 5-(5-(piperidin-4-yloxy)isoindolin-2-yl)-4-(trifluoromethyl)pyridazin-3(2H)-one were used to calculate the % inhibition as described below:
# [formula] where TRFcmpd is the TR-FRET ratio from the compound treated well, TRFmin is the TR-FRET ratio from the 5-(5-(piperidin-4-yloxy)isoindolin-2-yl)-4-(trifluoromethyl)pyridazin-3(2H)-one—treated positive control well and TRFmax is the TR-FRET ratio from the DMSO-treated negative control well. The % inhibition values were plotted as a function of compound concentration and the following 4-parameter fit was applied to derive the IC50 values:
# [formula] where top and bottom are normally allowed to float, but may be fixed at 100 or 0 respectively in a 3-parameter fit. The Hill Coefficient is normally allowed to float but may also be fixed at 1 in a 3-parameter fit. Y is the % inhibition and X is the compound concentration. Synthesis of Probe A
# PARP7, sequence (Q7Z3E1 whole entry): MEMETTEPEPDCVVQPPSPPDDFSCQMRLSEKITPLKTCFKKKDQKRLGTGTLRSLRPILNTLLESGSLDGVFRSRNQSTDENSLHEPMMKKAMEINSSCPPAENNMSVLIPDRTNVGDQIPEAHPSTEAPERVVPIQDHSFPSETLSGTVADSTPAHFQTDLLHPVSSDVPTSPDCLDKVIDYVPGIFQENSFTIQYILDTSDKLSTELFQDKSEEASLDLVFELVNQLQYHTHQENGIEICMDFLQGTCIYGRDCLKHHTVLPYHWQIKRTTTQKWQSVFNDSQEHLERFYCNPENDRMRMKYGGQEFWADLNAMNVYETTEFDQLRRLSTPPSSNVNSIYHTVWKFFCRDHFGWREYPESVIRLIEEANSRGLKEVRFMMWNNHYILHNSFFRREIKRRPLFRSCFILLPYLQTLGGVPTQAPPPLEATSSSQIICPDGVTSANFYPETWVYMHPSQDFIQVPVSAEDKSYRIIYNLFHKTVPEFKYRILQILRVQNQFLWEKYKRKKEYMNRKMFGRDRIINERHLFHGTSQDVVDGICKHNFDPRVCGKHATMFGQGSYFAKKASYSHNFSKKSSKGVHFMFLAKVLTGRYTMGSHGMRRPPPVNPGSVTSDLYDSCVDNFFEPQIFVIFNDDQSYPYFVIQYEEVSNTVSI
row,IC50,SMILES
1,< 100 nM,"C[C@@H](COCC(=O)NC1CCN(c2ncc(C(F)(F)F)cn2)CC1)Nc1cn[nH]c(=O)c1C(F)(F)F [Example 1, (S)-2-(2-(6-oxo-5-(trifluoromethyl)-1,6-dihydropyridazin-4-ylamino)propoxy)-N-(1-(5-(trifluoromethyl)pyrimidin-2-yl)piperidin-4-yl)acetamide]"
2,< 100 nM,"C[C@@H](CO[C@@H]1CCN(C2CCN(c3cnc(C(F)F)cn3)CC2)C1=O)Nc1cn[nH]c(=O)c1C(F)(F)F [Example 22B, 5-(((S)-1-(((R)-1-(1-(5-(difluoromethyl)pyrazin-2-yl)piperidin-4-yl)-2-oxopyrrolidin-3-yl)oxy)propan-2-yl)amino)-4-(trifluoromethyl)pyridazin-3(2H)-one]"
3,≥ 1000 nM,"COC[C@@H](CO[C@H]1CCN(C2CCN(c3ncc(C(F)(F)F)cn3)CC2)C1=O)Oc1cn[nH]c(=O)c1Br [Example 56A, 4-Bromo-5-(((S)-1-methoxy-3-(((S)-2-oxo-1-(1-(5-(trifluoromethyl)pyrimidin-2-yl)piperidin-4-yl)pyrrolidin-3-yl)oxy)propan-2-yl)oxy)pyridazin-3(2H)-one]"
4,< 100 nM,"C[C@@H](COC1CCN(C2CCN(c3ncc(C(F)(F)F)cn3)CC2)C1=O)Nc1cn[nH]c(=O)c1Cl (stereo partly drawn) [Example 11, 4-chloro-5-((S)-1-(2-oxo-1-(1-(5-(trifluoromethyl)pyrimidin-2-yl)piperidin-4-yl)pyrrolidin-3-yloxy)propan-2-ylamino)pyridazin-3(2H)-one]"
5,< 100 nM,"C[C@@H](CO[C@@H]1CCN(C2CCN(c3ncc(C(F)F)cn3)CC2)C1=O)Nc1cn[nH]c(=O)c1C(F)(F)F [Example 15B, 5-(((S)-1-(((R)-1-(1-(5-(difluoromethyl)pyrimidin-2-yl)piperidin-4-yl)-2-oxopyrrolidin-3-yl)oxy)propan-2-yl)amino)-4-(trifluoromethyl)pyridazin-3(2H)-one]"
6,< 100 nM,N#Cc1ccc(N2CCC(N3CC[C@H](OCCNc4cn[nH]c(=O)c4C(F)(F)F)C3=O)CC2)nc1 [Example 36B]
7,< 100 nM,"CN(C(=O)COC[C@@H]1CCN1c1cn[nH]c(=O)c1C(F)(F)F)C1CCN(c2ncc(C(F)(F)F)cn2)CC1 [Example 8, (S)—N-methyl-2-((1-(6-oxo-5-(trifluoromethyl)-1,6-dihydropyridazin-4-yl)azetidin-2-yl)methoxy)-N-(1-(5-(trifluoromethyl)pyrimidin-2-yl)piperidin-4-yl)acetamide]"
8,< 100 nM,"C[C@@H](COCC(=O)N(C)C1CCN(c2ncc(C(F)(F)F)cn2)CC1)Nc1cn[nH]c(=O)c1C(F)(F)F [Example 2, (S)—N-methyl-2-(2-(6-oxo-5-(trifluoromethyl)-1,6-dihydropyridazin-4-ylamino)propoxy)-N-(1-(5-(trifluoromethyl)pyrimidin-2-yl)piperidin-4-yl)acetamide]"
9,≥ 1000 nM,"C[C@@H](CO[C@@H]1C(=O)N(C2CCN(c3ncc(C(F)(F)F)cn3)CC2)CC1(C)C)Nc1cn[nH]c(=O)c1C(F)(F)F [Example 35A, 5-(((S)-1-(((S)-4,4-dimethyl-2-oxo-1-(1-(5-(trifluoromethyl)pyrimidin-2-yl)piperidin-4-yl)pyrrolidin-3-yl)oxy)propan-2-yl)amino)-4-(trifluoromethyl)pyridazin-3(2H)-one]"
10,< 100 nM,"C[C@@H](CO[C@@H]1CCN(C2CCN(c3cnc(C(F)(F)F)cn3)CC2)C1=O)Nc1cn[nH]c(=O)c1C(F)(F)F [Example 13B, 5-(((S)-1-(((R)-2-oxo-1-(1-(5-(trifluoromethyl)pyrazin-2-yl)piperidin-4-yl)pyrrolidin-3-yl)oxy)propan-2-yl)amino)-4-(trifluoromethyl)pyridazin-3(2H)-one]"
11,< 100 nM,"C[C@@H](CO[C@@H]1CCN([C@@H]2CCN(c3ccc(C#N)cn3)CC2(F)F)C1=O)Nc1cn[nH]c(=O)c1C(F)(F)F (single isomer, unassigned) [Example 40A]"
12,100 to 1000 nM,"COC[C@@H](CO[C@H]1CCN(C2CCN(c3ccc(C#N)cn3)CC2)C1=O)Oc1cn[nH]c(=O)c1C(F)(F)F [Example 50A, 6-(4-((S)-3-((S)-3-methoxy-2-((6-oxo-5-(trifluoromethyl)-1,6-dihydropyridazin-4-yl)oxy)propoxy)-2-oxopyrrolidin-1-yl)piperidin-1-yl)nicotinonitrile]"
13,100 to 1000 nM,"C[C@@H](CO[C@H]1CCN(C2CCN(c3ncc(C(F)(F)F)cn3)CC2)C1=O)Nc1cn[nH]c(=O)c1C(F)(F)F [Example 10A, 5-((S)-1-((S)-1-(1-(5-(trifluoromethyl)pyrimidin-2-yl)piperidin-4-yl)-2-oxopyrrolidin-3-yloxy)propan-2-ylamino)-4-(trifluoromethyl)pyridazin-3(2H)-one]"
14,100 to 1000 nM,"COC[C@@H](CO[C@H]1CCN(C2CCN(c3cnc(C(F)(F)F)cn3)CC2)C1=O)Nc1cn[nH]c(=O)c1C(F)(F)F [Example 18A, 5-(((S)-1-methoxy-3-(((S)-2-oxo-1-(1-(5-(trifluoromethyl)pyrazin-2-yl)piperidin-4-yl)pyrrolidin-3-yl)oxy)propan-2-yl)amino)-4-(trifluoromethyl)pyridazin-3(2H)-one]"
15,< 100 nM,"C[C@@H](CO[C@@H]1CCN(C2CCN(c3ncc(C(F)(F)F)cn3)CC2)C1=O)Nc1cn[nH]c(=O)c1C(F)(F)F [Example 10B, 5-((S)-1-((R)-1-(1-(5-(trifluoromethyl)pyrimidin-2-yl)piperidin-4-yl)-2-oxopyrrolidin-3-yloxy)propan-2-ylamino)-4-(trifluoromethyl)pyridazin-3(2H)-one]"
16,< 100 nM,"C[C@@H](CO[C@@H]1CCN([C@@H]2CCN(c3ncc(C(F)(F)F)cn3)C[C@H]2F)C1=O)Nc1cn[nH]c(=O)c1C(F)(F)F (single isomer, unassigned) [Example 38A]"
17,≥ 1000 nM,"COC[C@@H](CO[C@H]1CCN(C2CCN(c3ccc(C#N)cn3)CC2)C1=O)Oc1cn[nH]c(=O)c1Br [Example 55A, 6-(4-((S)-3-((S)-2-((5-bromo-6-oxo-1,6-dihydropyridazin-4-yl)oxy)-3-methoxypropoxy)-2-oxopyrrolidin-1-yl)piperidin-1-yl)nicotinonitrile]"
18,< 100 nM,"C[C@@H](CO[C@H]1C(=O)N(C2CCN(c3ncc(C(F)(F)F)cn3)CC2)C[C@@H]1C)Nc1cn[nH]c(=O)c1C(F)(F)F [Example 37B, 5-(((S)-1-(((3R,4S)-4-methyl-2-oxo-1-(1-(5-(trifluoromethyl)pyrimidin-2-yl)piperidin-4-yl)pyrrolidin-3-yl)oxy)propan-2-yl)amino)-4-(trifluoromethyl)pyridazin-3(2H)-one]"
19,100 to 1000 nM,"C[C@@H](CO[C@H]1CCN(C2CCN(c3ncc(C(F)(F)F)cn3)CC2)C1=O)Oc1cn[nH]c(=O)c1Cl [Example 47A, 4-chloro-5-(((S)-1-(((S)-2-oxo-1-(1-(5-(trifluoromethyl)pyrimidin-2-yl)piperidin-4-yl)pyrrolidin-3-yl)oxy)propan-2-yl)oxy)pyridazin-3(2H)-one]"
20,< 100 nM,"C[C@@H](O)[C@@H](CO[C@@H]1CCN(C2CCN(c3ncc(C(F)(F)F)cn3)CC2)C1=O)Nc1cn[nH]c(=O)c1C(F)(F)F [Example 67, 5-(((2R,3R)-3-hydroxy-1-(((R)-2-oxo-1-(1-(5-(trifluoromethyl)pyrimidin-2-yl)piperidin-4-yl)pyrrolidin-3-yl)oxy)butan-2-yl)amino)-4-(trifluoromethyl)pyridazin-3(2H)-one]"
21,< 100 nM,"C[C@@H](COCC(=O)N(C)C1CCN(c2cnc(C(F)(F)F)cn2)CC1)Nc1cn[nH]c(=O)c1C(F)(F)F [Example 4, (S)—N-methyl-2-(2-(6-oxo-5-(trifluoromethyl)-1,6-dihydropyridazin-4-ylamino)propoxy)-N-(1-(5-(trifluoromethyl)pyrazin-2-yl)piperidin-4-yl)acetamide]"
22,< 100 nM,"COC[C@@H](CO[C@@H]1CCN(C2CCN(c3ccc(C#N)cn3)CC2)C1=O)Nc1cn[nH]c(=O)c1C(F)(F)F [Example 17B, 6-(4-((R)-3-((S)-3-methoxy-2-((6-oxo-5-(trifluoromethyl)-1,6-dihydropyridazin-4-yl)amino)propoxy)-2-oxopyrrolidin-1-yl)piperidin-1-yl)nicotinonitrile]"
23,< 100 nM,"C[C@@H](CO[C@@H]1CCN([C@H]2CCN(c3ncc(C(F)(F)F)cn3)C[C@H]2O)C1=O)Nc1cn[nH]c(=O)c1C(F)(F)F [Example 60, 5-(((S)-1-(((R)-1-((3R,4S)-3-hydroxy-1-(5-(trifluoromethyl)pyrimidin-2-yl)piperidin-4-yl)-2-oxopyrrolidin-3-yl)oxy)propan-2-yl)amino)-4-(trifluoromethyl)pyridazin-3(2H)-one]"
